From patent US6555091B1, “Polypeptide capable of reacting with antibodies of patients suffering from multiple sclerosis and uses” (Bio Merieux, priority 1997, dated 2003)
No end group written: not given here.

Columns and labels:
Type in all cases: binding, human
[1] = system: IgM of cerebrospinal fluids from patients suffering from MS; assay: ELISA of pentadecapeptide phage clones, IgM response of CSFs (FIG. 6); conditions: CSF 4 and CSF 7 (MS), CSF 12 (other neurological disease), CSFs diluted 1/10
Excerpt: FIG. 6 represents the IgM response of the CSFs with respect to phages expressing the sequences SEQ ID NO: 14 (EPM), SEQ ID NO: 13 (FCP), SEQ ID NO: 16 (SRG), SEQ ID NO: 17 (QSP) , with respect to the wild-type phage (without an expressed sequence) and another nonspecific sequence (RTG); this representation is given by a histogram grouping together the results expressed as optical density values obtained for each CSF reduced by those obtained with PBS buffer controls in place of the phages; the immunoreactivity of the phage clones is tested in ELISA as described in Example 2, with respect to CSFs diluted 1/10; CSF 12 corresponds to a patient suffering from a neurological disease other than MS; CSF 4 and CSF 7 correspond to two patients suffering from MS.
In a first instance, 100 μl of anti-M13 phage antibodies diluted 1/500 in 0.1M NaHCO3, pH 8.6 (marketed by Prinn, Inc. Boulder, Colo. 80303) are bound overnight in the wells of Nunc maxisorb (trade name) microtiter plates. […] The optical density is measured on a BioMérieux plate reader at 492 nm. The IgM response is determined by addition of 100 μl of biotinylated anti-IgM conjugate diluted 1/4000 (Biomérieux monoclonal antibody) followed by the addition, after the washes, of the streptavidin-peroxidase conjugate diluted 1/10,000. […]

[2] = system: IgG of CSF from patients suffering from MS; assay: ELISA of polypeptides, IgG response of CSFs diluted 1/10 (Table 5, FIGS. 7A and 7B); parameters: key to IgG recognition by CSF: positive (+) if the OD value at 492 nm for a 1/10 dilution of the CSF is greater than the mean values obtained for the CSFs from the ND patients+3 times the standard deviation; conditions: for number of positive (+) CSFs: total line, 15 MS patients, CSF 1/10
Excerpt: FIGS. 7A and 7B represents the IgG response of the polypeptides whose peptide sequence consists of, respectively, SEQ ID NO: 13, SEQ ID NO: 12, SEQ ID NO: 14, SEQ ID NO: 16, SEQ ID NO: 19 and SEQ ID NO: 15, with respect to CSFs diluted 1/10; the results assembled in the appended Table 5 are expressed by the difference in the optical density values obtained for the polypeptide tested and the values obtained for the HIV polypeptide used as control; ND corresponds to patients suffering from a neurological disease other than MS, and MS* corresponds to patients suffering from MS.
Table 5, illustrated in FIGS. 7A and 7B, collates the results on the specific recognition of CSF from patients suffering from MS for 6 polypeptides of the invention, SEQ ID NO: 13, SEQ ID NO: 12, SEQ ID NO: 14, SEQ ID NO: 16, SEQ ID NO: 19 and SEQ ID NO: 15.
For each polypeptide tested, identified in Table 5 by its peptide sequence, the CSFs from patients 1-22 suffering from Ms are determined as positive (+) if the OD value at 492 nm for a 1/10 dilution of the CSF is greater than the mean values obtained for the CSFs from the ND patients+3 times the standard deviation.

[3] = system: IgG of pool of positive sera (MS remission sera); assay: ELISA of pentadecapeptide phage clones, pool of positive sera versus pool of negative sera; conditions: phage clones carrying the sequence; 1/200 serum dilution; pool of positive sera compared with pool of negative sera
Description: In a first instance, 100 μl of anti-M13 phage antibodies diluted 1/500 in 0.1M NaHCO3, pH 8.6 (marketed by Prinn, Inc. Boulder, Colo. 80303) are bound overnight in the wells of Nunc maxisorb (trade name) microtiter plates. After three washes with TBS/0.05% Tween, the plates are passivated for 1 hour at 37° C. with 250 μl of TBS containing 10% goat serum and again washed three times with the same buffer. 100 μl of various purified phage clones are then incubated for 2 hours at 37° C. in the wells. […] After four washes in TBS/0.05% Tween, 100 μl of peroxidase-labeled anti-human IgG conjugate diluted 1/10,000 (marketed by Jackson Immuno Research Laboratories Inc.) are added before an incubation for one hour at 37° C. […] The staining reaction is interrupted by the addition of 50 μl of 1.8N sulfuric acid. The optical density is measured on a BioMérieux plate reader at 492 nm. The IgM response is determined by addition of 100 μl of biotinylated anti-IgM conjugate diluted 1/4000 (Biomérieux monoclonal antibody) followed by the addition, after the washes, of the streptavidin-peroxidase conjugate diluted 1/10,000.
A library of pentadecapeptides carried on 300 copies of the phage protein VIII was constructed on the same principle as the hexapeptide library using the vector f88-4 according to the work by Greewood et al. (J. Biol. Mol. 1991). […]

With EPMTPHQWITLYRSY (MSRV) [SEQ ID NO: 14] the “recognition of the phage clone by CSFs” value [1] was “recognized only by CSF 7”, the “IgG recognition by CSF” value ([2]; CSF of MS patient 1, 1/10) was “+” and the “IgG recognition by CSF” value ([2]; CSF of MS patient 2, 1/10) was “+”. For the same sequence, the “IgG recognition by CSF” value ([2]; CSF of MS patient 3, 1/10) was “+”, the “IgG recognition by CSF” value ([2]; CSF of MS patient 5, 1/10) was “+” and the “IgG recognition by CSF” value ([2]; CSF of MS patient 7, 1/10) was “+”. The “IgG recognition by CSF” value ([2]; CSF of MS patient 10, 1/10) was “+”, the “IgG recognition by CSF” value ([2]; CSF of MS patient 18, 1/10) was “+” and the “IgG recognition by CSF” value ([2]; CSF of MS patient 21, 1/10) was “+”. The “number of positive (+) CSFs” value [2] was 8+.
With FCPPILPYSAWCPVP (MSRV) [SEQ ID NO: 13] the “recognition of the phage clone by CSFs” value [1] was “recognized specifically by CSFs 7 and 4”, the “IgG recognition by CSF” value ([2]; CSF of MS patient 1, 1/10) was “+” and the “IgG recognition by CSF” value ([2]; CSF of MS patient 2, 1/10) was “+”. The “IgG recognition by CSF” value ([2]; CSF of MS patient 3, 1/10) was “+”, the “IgG recognition by CSF” value ([2]; CSF of MS patient 5, 1/10) was “+” and the “IgG recognition by CSF” value ([2]; CSF of MS patient 7, 1/10) was “+”. For the same sequence, the “IgG recognition by CSF” value ([2]; CSF of MS patient 8, 1/10) was “+”, the “IgG recognition by CSF” value ([2]; CSF of MS patient 10, 1/10) was “+” and the “IgG recognition by CSF” value ([2]; CSF of MS patient 18, 1/10) was “+”. The “IgG recognition by CSF” value ([2]; CSF of MS patient 20, 1/10) was “+”, the “IgG recognition by CSF” value ([2]; CSF of MS patient 21, 1/10) was “+” and the “number of positive (+) CSFs” value [2] was 10+.
With “NACYVDLFLGASVCP (cysteine pairing not given here) [SEQ ID NO: 10, pentadecapeptide carried by phage clones]” the “average positive IgG response” value [3] was 0.069.
In the case of “SSAKSHCYAFCSGLP (cysteine pairing not given here) [SEQ ID NO: 11, pentadecapeptide carried by phage clones]”, the “average positive IgG response” value [3] is reported as 0.248.
